From patent US9624491B2, “Methods and compositions for the detection and treatment of cancer involving miRNAs and miRNA inhibitors and targets” (Memorial Sloan Kettering Cancer Center, priority 2010, dated 2017)

B1: TTTGGCACTGGTAGAACTCCCAATCTTCCTGTCAGAGTGTGAGTTCTACCATTGCCAAATTTTT (nucleic acid)
antisense: TTTGGCACTGGTAGAACTCCCAATCTTCCTGTCAGAGTGTGAGTTCTACCATTGCCAAATTTTT
modifications: listed as DNA, chemistry not fully specified
notes: control antagomir to the randomly chosen miR-182

Columns and labels:
[1] = tested on: PTEN, BCL2L11, PHF6, IKZF1, NF1, FBXW7; assay: 3′UTR reporter, quantitative PCR and immunoblot assays of tumor suppressor genes in murine leukemias; format: cell-based; conditions: murine T-ALLs expressing NOTCH1 and miRNA, mRNA, protein
Protocol: Immunoblots of whole cell lysates were performed as described (Wendel, et al., 2004). Antibodies were against Bim/Bcl2l11 (AAP-330, 1:1000, Assay Designs), Nf1 (sc67, 1:100, Santa Cruz), Cdc4/Fbxw7 (ab7405, 1:500, Abeam), Ikzf1 (sc-13039, 1:500, Santa Cruz), Phf6 (NB100-79861, 1:1000, Novus Biologicals), Pten (9559, 1:1000, Cell Signaling), tubulin (1:5000; Sigma, B-5-1-2) and actin (1:5000; Sigma, AC-15).
(§1) Total RNA and miRNA-enriched RNA was extracted using the Allprep DNA/RNA/Protein and miRNeasy Mini kits. Pathological diagnosis was by expert hematopathologists at Weill Cornell Medical Center. cDNA synthesis, PCR and analysis by the ΔΔ Ct method were as described (Mavrakis, et al., 2008) and utilized Taqman Gene Expression Assays: Bcl2l11 (Mm00437796_m1), BCL2L11 (Hs00197982_m1), Pten (Mm01212532_m1), PTEN (Hs02621230_s1), Nf1 (Mm00812430_m1), NF1 (Hs01035104_m1), Ikzf1 (Mm01187878_m1), IKZF1 (Hs00172991_m1), Fbxw7 (Mm00504452_m1), FBXW7 (Hs00217794_m1), Phf6 (Mm00804415_m1), and Mouse GAPD (GAPDH) (4352932, Applied Biosystems). Expression was normalized to RNU6B (001093, Applied Biosystems).
The mouse FBXW7 (bp 2793-4139; acc. no. NM_001177773), human NF1 (bp 10033-10666; acc. no NM_000267), human PHF6 (bp position 3271-4299; acc. no. NM_001015877) and Bim (bp. 3155-4773; acc. no. NM_009754) 3′UTR fragments were generated by PCR and cloned into the psi-CHECK-2 vector (Promega) with the exception of the IKZF1 3′UTR, which was purchased from Genecopoeia (cat no. HmiT000397b, by 2343-4471 of UTR). The assays were performed as described (Xiao, et al., 2008).

FL5-12 lymphocytes = assay: IL3 depletion competition assay for cytokine-independent survival of FL5-12 lymphocytes; format: cell-based, murine; conditions: for IL-3 independence of FL5-12 cells: retest of individual miRNAs from secondary library screen
Protocol: An established in vitro assay of hematopoietic transformation (Plas, Talapatra, Edinger, Rathmell, & Thompson, 2001) was used to identify the key oncogenic activities within the 17˜92 cluster and its paralogues. All miRNAs representing families of unique seed sequences, specifically miR-17, miR-18a, miR-19b-1 (miR-19), miR-20a, miR-106a, miR-106b and miR-25 were tested (FIG. 1a). The assay is based on the IL3 dependence of FL5-12 lymphocytes, which undergo apoptosis when removed from IL3. In competition experiments, FL5-12 cells were partially transduced with GFP plus individual miRNAs or empty vector and these mixed populations were monitored by fluorescence-activated cell sorting (FACS) for changes in their relative proportions (FIG. 1b).
FL5-12 murine lymphocytes, IL3 depletion studies and viral transductions were as described (Mavrakis, et al., 2008) (Plas, Talapatra, Edinger, Rathmell, & Thompson, 2001). Cell cycle and cell death assays based on uptake of DNA staining dye (LDS751) using Cell cycle and Viacount assays from Guava Technologies were performed as reported (Mavrakis, et al., 2008). The retroviral vectors are based on murine stem cell virus (MSCV) and include the miRNA expression vectors encoding miRs 17, 18a, 19b-1 (miR-19), 106a, 106b, 25 (He, et al., 2005), the vectors encoding Notch-ICN (a gift from W. Pear) (Pear, et al., 1996) and Bcl2 (Wendel, et al., 2004), the individual shRNA vectors (FIG. 17) and the library vector (MRP) (FIGS. 18a and b). miRNA inhibitor oligonucleotides (antagomirs) MZIP19a-PA-1, MZIP19b-PA-1, and scrambled control (MZIP000-PA-1) were from System Biosciences.
The primary screen is based on c-MYC-induced apoptosis in MEFs (Evan, et al., 1992). MEFs were transduced with c-MYC and the miRNA library and cultured in puromycin to select for homogeneous c-MYC expression; apoptosis was triggered by diluting serum from 10% to 0.1%. Surviving cells remained adherent and were collected for DNA isolation, PCR amplification of the integrated miRNA library constructs, sub-cloning into pGEM-T vector, bacterial transformation, and sequence identification of ˜100 colonies. A secondary library was constructed by sub-cloning all miRNAs from the primary screen into an MSCV construct. The secondary screen is based on the IL-3 dependence of FL5-12 lymphocytes in vitro (Mavrakis, et al., 2010), (Plas, Talapatra, Edinger, Rathmell, & Thompson, 2001). FL5-12 cells were partially transduced with the pooled, GFP-tagged library and selected by IL-3 depletion. miRNAs were identified as above. Individual miRNAs were subsequently validated in the same FL5-12 assay and in vivo.

T-ALL1 cells [2] = assay: Viability of T-ALL1 cells transduced with antagomirs; format: cell-based, human
Protocol: (§2) Given the pleiotropic and partially overlapping pattern of tumor suppressor gene regulation by multiple miRNAs, the effect of miRNA antagomirs on the growth rate and viability of two human T-ALL cell lines, T-ALL1 and Koptk1, were assessed. The human T-ALL1 cell line expresses high levels of miR-19a, miR-19b, miR-26a and miR-92 but only low levels of other miRNAs, e.g. miR-148a and the randomly chosen miR-182 (FIG. 27b inset). […] Results in the Koptk1 cell line were analogous to those in the T-ALL1 cell line (FIG. 28).
(§3) FL5-12 murine pro B-lymphocytes, cell cycle and apoptosis studies and viral transductions were as described (Mavrakis, et al., 2008), (Plas, Talapatra, Edinger, Rathmell, & Thompson, 2001). T-ALL cell lines, including Jurkat, were cultured in RPMI 1640 medium supplemented with 10-20% fetal calf serum, 100 U/ml penicillin G and 100 μg/ml streptomycin at 37° C. in a humidified atmosphere under 5% CO2. All vectors are based on murine stem cell virus (MSCV) and include the miRNA expression vector encoding all miRNAs described (He, et al., 2005), NOTCH1-ICN (Pear, et al., 1996) and the individual shRNA vectors (protein knockdown by shRNAs; FIG. 10). The miRNA pooled library (He, et al., 2005) is a generous gift from G. J. Hannon and has been expanded by PCR cloning to contain ˜300 miRNAs. The antagomirs MZIP19a-PA-1, MZIP19b-PA-1, MZIP26a-PA-1, MZIP92a-PA-1, MZIP148a-PA-1, MZIP182-PA1, MZIP223-PA-1 and scrambled control (MZIP000-PA-1) were from System Biosciences.

T-ALL1 cells [3] = assay: Cell number during in vitro culture of T-ALL1 cells expressing antagomirs; format: cell-based, human; conditions: T-ALL1, 6 d culture
Protocol: as §2, §3

PTEN and BCL2L11 = assay: Quantitative RT-PCR of BCL2L11 and PTEN mRNA in T-ALL1 cells; format: cell-based, human
From the text: as §1

| Molecule | regulation of tumor suppressor genes [1] | IL-3 independence of FL5-12 cells (FL5-12 lymphocytes) | cell viability (T-ALL1 cells [2]) | growth rate (T-ALL1 cells [3]) | expression of PTEN and BCL2L11 (PTEN and BCL2L11) | enrichment of cells co-expressing miR-19/GFP following IL3 depletion (FL5-12 lymphocytes; treated with 1 μM metformin to activate AMP-kinase) |
| --- | --- | --- | --- | --- | --- | --- |
| miR-92: miRNA, UAUUGCACUUGUCCCGGCCUGU (SEQ ID NO: 6) (expressed or natural sequence; listed as Homo sapiens) | affects IKZF1 and FBWX7 but does not target the murine NF1 |  |  |  |  |  |
| miR-20a: miRNA, UAAAGUGCUUAUAGUGCAGGUAG (SEQ ID NO: 3) (expressed or natural sequence; listed as Homo sapiens) | reduce levels of PTEN and PHF6 protein and mRNA in leukemic cells |  |  |  |  |  |
| miR-26: miRNA, UUCAAGUAAUCCAGGAUAGGCU (SEQ ID NO: 5) (expressed or natural sequence; listed as Homo sapiens) | reduce levels of PTEN and PHF6 protein and mRNA in leukemic cells | confirmed to confer IL-3 independence on FL5-12 cells |  |  |  |  |
| TCAGTGCGCTACAGAACGTTATCTTCCTGTCAGACAAAGTTCTGTAGTGCACTGATTTTT (listed as DNA, chemistry not fully specified) [antagomir against miR-148a, antagomir to miR148, miRZIP from System Biosciences] |  |  | no significant (p>0.05) effect | no significant (p>0.05) effect | no significant (p>0.05) effect |  |
| TTCAAGTGATCCAGGATCGGATCTTCCTGTCAGAGCCTATCCTGGATTACTTGAATTTTT (listed as DNA, chemistry not fully specified) [antagomir against miR-26a, antagomir to miR26a, miRZIP from System Biosciences] |  |  | significantly decrease cell viability | reduce growth rate | de-repress the tumor suppressor genes PTEN and BCL2L11 |  |
| TATTGCAATTGTCCCGGACTATCTTCCTGTCAGACAGGCCGGGACAAGTGCAATATTTTT (listed as DNA, chemistry not fully specified) [antagomir against miR-92, antagomir to miR92a, miRZIP from System Biosciences] |  |  | significantly decrease cell viability | reduce growth rate | de-repress the tumor suppressor genes PTEN and BCL2L11 |  |
| miR-223: miRNA, UGUCAGUUUGUCAAAUACCCCA (SEQ ID NO: 10) (expressed or natural sequence; listed as Homo sapiens) | strongly regulates FBXW7 reporter activity and protein levels | confirmed to confer IL-3 independence on FL5-12 cells |  |  |  |  |
| CN(C)C(=N)N=C(N)N [metformin, reference compound] |  |  |  |  |  | Neither the other cDNAs nor metformin treatment abrogated miR-19's protective function |
| B1 |  |  | no significant (p>0.05) effect | no significant (p>0.05) effect | no significant (p>0.05) effect |  |
